Key:
[1] = system: Blood platelet (ADP agglutination); assay: Blood platelet agglutination inhibiting activity (ADP-induced), washed rabbit platelet suspension; format: cell-based, rabbit (Japanese white male rabbits); conditions: for IC50: Oryctolagus cuniculus, Platelet, ADP 10 μM, concentration suppressing agglutination to 50%, read-out: Platelet agglutination inhibiting activity ED50, ADP agglutination; for Activity ratio, platelet agglutination inhibiting activity, ADP agglutination: relative to prostacyclin = 1
Procedure: (§1) Blood platelet aggutination inhibiting activity
(§2) Japanese white male rabbits having a weight of from 2.0 to 2.5 kg were used.
(§3) Under anesthesia with sodium Pentobarbital, blood was sampled from the carotid artery, and mixed with a 1/7 volume of an anticoagulant citric acid dextrose solution. Then, the mixture was subjected to centrifugal separation at 140×g for 15 minutes, whereupon the supernatant (platelet rich plasma:PRP) was obtained. PRP was subjected to centrifugal separation at 1,300×g for 7 minutes. The blood platelet pellets thus obtained were washed with a HEPES buffer solution (pH 6.5) for washing blood platelets, and subjected to centrifugal separation at 1,300×g for 7 minutes. The blood platelet pellets washed twice under such condition, were suspended in a suspending liquid (a buffer solution for washing blood platelets, which contains 0.1% of human fibrinogen, 1.8 mM of CaCl2 and 1.2 mM of MgCl2) to obtain a blood platelet suspension having a concentration of from 5×10^8 to 8×10^8 platelets/ml.
(§4) The platelet agglutination ability was measured by means of an agglutination meter. To 380 μl of the platelet suspension, 10 μl of a test compound or a solvent as the control, was added. Three minutes later, 10 μl of a platelet agglutinating substance (10 μM of ADP or 1 μg/ml of collagen, as the final concentration) was added thereto to induce agglutination.
(§5) The blood platelet agglutination inhibiting activity of each test compound was represented by ED50 (i.e. the concentration of the test compound where the platelet agglutination is suppressed to 50%).

ulcer = assay: Anti-ulcer activity (general statement); format: in vivo, animals; conditions: compared with typical PG such as PGE2
From the text: On the basis of this discovery, a further research has been made for the application to the prevention and treatment of digestive organ ulcers, and have accomplished the present invention.

femoral artery = assay: Blood flow-increasing activity in the femoral artery, anesthetized dog; format: in vivo, crossbred adult dog; conditions: for ED50: Canis lupus familiaris, dog, near arterial injection, papaverine hydrochloride 100 μg/kg = 100%; for Activity ratio, blood flow-increasing activity in femoral artery: relative to prostacyclin = 1
Procedure: Blood flow-increasing activity in the femoral artery
A male or female crossbred adult dog having a weight of from 8 to 13 kg, was anesthetized by intravenous administration of sodium Pentobarbital. Then, a tracheal cannula was inserted, and artificial respiration was conducted. The blood flow in the femoral artery was measured by inserting the annula into the left femoral artery under sodium heparin treatment and providing a blood flow measuring probe at it other end, and by using an electromagnetic flow meter. The test compound was injected into the femoral artery by near arterial injection, and the blood flow-increasing activity in the femoral artery was represented by ED50 (i.e. the dose of a test compound at which the blood flow increases by 50%, as evaluated on the bais that the blood flow increase (representing substantially the maximum reaction) by the administration of 100 μg/kg of papaveline hydrochloride into the femoral artery, is evaluted to be 100%).

diastolic blood pressure = assay: Hypotensive activity, anesthetized dog; format: in vivo, crossbred adult dog; conditions: for Activity ratio, hypotensive activity: relative to prostacyclin = 1; for Hypotensive activity, blood pressure decrease: at 10 μg/kg i.v.
Procedure: A male or female crossbred adult dog having a weight of from 9 to 14 kg was anesthetized by intraveous administration of sodium Pentobarbital. Then, the left carotid was exposed under artificial respiration, and the blood pressure was measured by using an electric blood pressure meter. […]

Indomethacine ulcer = Indomethacine ulcer inhibiting activity; format: in vivo, Male wister rats; conditions: rat; oral administration of 60 μg/kg twice
From the text: Indomethacine ulcer inhibiting activity
Male wister rats having a weight of from 210 to 270 g were used. The rats were starved in the same manner as in Test Example 6. […] Three hours after the indomethacine administration, the test compound or PGE2 was again orally administered in the same amount. Six hours after the first administration of indomethacine, each rat was killed by cervical bertebral luxation. The stomach was taken out and fixed, and the ulcer index was obtained, in the same manner as in Test Example 6.
The indomethacine ulcer inhibiting activity of a test compound was represented by the inhibiting percentage (i.e. the inhibiting percentage of the ulcer index of the treated group to the ulcer index of the non-treated group). To the non-treated group, the solvent was administered.

coronary artery = assay: Blood flow-increasing activity in the coronary artery, anesthetized dog; format: in vivo, crossbred adult dog; conditions: for ED50: Canis lupus familiaris, dog, near arterial injection, reactive hyperemia = 100%; for Activity ratio, blood flow-increasing activity in coronary artery: relative to prostacyclin = 1
Procedure: Blood flow-increasing activity in the coronary artery
A crossbred adult dog having a weight of from 9 to 15 kg was anesthetized with sodium Pentobarbital and subjected to thoractomy under artificial respiration. After pericardiectomy, the frontal descending branch of the left coronary artery was separated from the surrounding tissues, and a blood flow-measuring probe was attached thereto under sodium heparin treatment. The coronary blood flow was measured by using an electromagnetic flow meter. The test compound was injected into the coronary artery by near arterial injection, and the blood flow-increasing activity in the coronay artery was represented by ED50 (i.e. the dose of a test compound at which the blood flow increases by 50%, as evaluated on the basis that the blood flow increase by the reactive hyperemia caused by releasing the blood flow of the coronary artery after blocking it for 15 seconds, is evaluated to be 100%).

Ethanol ulcer = Ethanol ulcer inhibiting activity; format: in vivo, Male wister rats; conditions: rat; for ED50: po, P.O., 30 minutes before 99.5% ethanol
Procedure: Ethanol ulcer inhibiting activity
Male wister rats having a weight of from 170 to 270 g were put into individual cages and starved for 24 hours. During this starvation period, the rats were allowed to drink water freely. A test compound or PGE2 as a comparative compound was orally administered in an amount of 3, 10 or 30 μg/kg, and 30 minutes later, 1 ml of 99.5% ethanol was orally administered to each rat. One hour after the ethanol administration, each rat was filled by cervical vertebral luxation, and the stomach was taken out. A 1% formaline solution was injected into the stomach in an amount of about 8 ml, and the stomach was fixed in the formaline solution for 30 minutes. After the fixing, the stomach was severed along the greater curvature, and the mucous membrane surface of the stomach was gently washed with flowing water. Then, the total length of damages appearing on the gastric glandular portion was obtained and used as the ulcer index.
The ethanol ulcer inhibiting activity of a test compound was represented by ED50 (i.e. the dose of the test compound at which the ulcer was inhibited by 50% relative to the ulcer index of the non-treated group). To the non-treated group, the solvent was administered.

vertebral artery = assay: Blood flow-increasing activity in the vertebral artery, anesthetized dog; format: in vivo, crossbred adult dog; conditions: for ED50: Canis lupus familiaris, dog, near arterial injection, papaverine hydrochloride 100 μg/kg = 100%; for Activity ratio, blood flow-increasing activity in vertebral artery: relative to prostacyclin = 1
From the text: Blood flow-increasing activity in the vertebral artery
A made or female crossbred adult dog having a weight of from 8 to 13 kg was anesthetized by intravenous administration of sodium Pentobarbital and subjected to thoractomy along the mediam line under artificial respiration to expose the left vertebral artery. Under sodium peparin treatment, a polyethylene cannula was inserted into the vertebral artery, and a blood flow-measuring probe was attached to its other end, to which a blood circulation tube led from the left femoral artery was connected, whereby the blood flow in the vertebral artery was measured by using an electromagnetic flow meter. The test compound was injected into the vertebral artery by near arterial injection, and the blood flow-increasingactivity in the vertebral artery was represented by ED50 (i.e. the dose of a test compound at which the blood flow increases by 50%, as evaluated on the basis that the blood flow increase (representing substantially the maximum reaction) by the administration of 100 μg/kg papaverine hydrochloride into the vertebral artery, is evaluated to be 100%).

Hydrochloric acid ulcer = Hydrochloric acid ulcer inhibiting activity; format: in vivo, wister rats; conditions: rat; oral administration of 30 μg/kg; 0.6N hydrochloric acid; read-out: Hydrochloric acid ulcer inhibiting activity, Inhibiting rate
Procedure: Hydrochloric acid ulcer inhibiting activity
Male wister […] having a weight of from 190 to 240 g were used. The rats were starved in the same manner as in Test Example 6, and the test compounds and PGE2 were, respectively, orally administered in an amount of 30 μg/kg, and 30 minutes later, 1 ml of 0.6N hydrochloric acid was orally administered. Thirty minutes after the hydrochloric acid administration, each rat was killed by cervical vertebral luxation. Then, the stomach was taken out and fixed, and the ulcer index was obtained, in the same manner as in Test Example 6. The hydrochloric acid ulcer inhibiting activity of a test compound was represented by the inhibiting percentage (i.e. the percentage of the ulcer index of the treated group to the ulcer index of the non-treated group). To the non-treated group, the solvent was administered.

[2] = system: Blood platelet (Collagen agglutination); assay: Blood platelet agglutination inhibiting activity (collagen-induced), washed rabbit platelet suspension; format: cell-based, rabbit (Japanese white male rabbits); conditions: for Activity ratio, platelet agglutination inhibiting activity, Collagen agglutination: relative to prostacyclin = 1
Procedure: as §1, §2, §3, §4, §5

[3] = background; cited from earlier work

SMILES: CCC#CCC(C)[C@H](O)/C=C/[C@@H]1[C@H]2CCC(C=CCCC(=O)O)=C[C@H]2C[C@H]1O (stereo partly drawn) [(d), 3-(4-carboxy-1-butenyl)-7-exo-(3α-hydroxy-4,8-dimethyl-trans-1-octen-6-ynyl)-8-endo-hydroxy-cis-bicyclo[4,3,0]nona-2-ene]
- IC50 [1]: 8.7 nM
- Activity ratio, platelet agglutination inhibiting activity, ADP agglutination [1]: 1/3
- Anti-ulcer activity (in words) (ulcer): comparable or superior to typical PG having anti-ulcer activities, such as PGE2
- ED50 (femoral artery): 0.9 µg/kg
- Activity ratio, blood flow-increasing activity in femoral artery (femoral artery): 1/38
- ED (50 mmHg) (diastolic blood pressure; Canis lupus familiaris, iv, dog, femoral vein, Table 1, read-out: Hypotensive activity ED50 (dose reducing diastolic blood pressure by 50 mmHg)): 8.7 µg/kg
- Activity ratio, hypotensive activity (diastolic blood pressure): 1/36
- Indomethacine ulcer inhibiting activity, Inhibiting rate (Indomethacine ulcer): 73.5%
- ED50 (coronary artery): 0.38 µg/kg
- Activity ratio, blood flow-increasing activity in coronary artery (coronary artery): 1/38
- ED50 (Ethanol ulcer): 2.55 µg/kg
- ED50 (vertebral artery): 1.9 µg/kg
- Activity ratio, blood flow-increasing activity in vertebral artery (vertebral artery): 1/43
- inhibition in vivo at 0.03 mg/kg (Hydrochloric acid ulcer): 24.1%

SMILES: CCCCC[C@H](O)/C=C/[C@@H]1[C@H]2CCC(CCCCC(=O)O)=C[C@H]2C[C@H]1O [(e), 3-(4-carboxybutyl)-7-exo-(3α-hydroxy-trans-1-octenyl)-8-enodo-hydroxy-cis-bicyclo[4,3,0]nona-2-ene]
- IC50 [1]: 290 nM
- Activity ratio, platelet agglutination inhibiting activity, ADP agglutination [1]: 1/100
- IC50 ([2]; Oryctolagus cuniculus, Platelet, collagen 1 μg/ml, concentration suppressing agglutination to 50%, read-out: Platelet agglutination inhibiting activity ED50, Collagen agglutination): 280 nM
- Activity ratio, platelet agglutination inhibiting activity, Collagen agglutination [2]: 1/82
- ED50 (femoral artery): 0.46 µg/kg
- Activity ratio, blood flow-increasing activity in femoral artery (femoral artery): 1/19
- Hypotensive activity, blood pressure decrease (diastolic blood pressure; dog): 17.9 mmHg
- Activity ratio, hypotensive activity (diastolic blood pressure): 1/213
- Indomethacine ulcer inhibition (in words) (Indomethacine ulcer): Certain inhibition
- ED50 (coronary artery): 3.8 µg/kg
- Activity ratio, blood flow-increasing activity in coronary artery (coronary artery): 1/380
- Ethanol ulcer inhibition (Ethanol ulcer; oral administration of 30 μg/kg): 28.5%
- ED50 (vertebral artery): 2.5 µg/kg
- Activity ratio, blood flow-increasing activity in vertebral artery (vertebral artery): 1/57
- inhibition in vivo at 0.03 mg/kg (Hydrochloric acid ulcer): 18.3%

SMILES: CCCCC[C@H](O)/C=C/[C@@H]1[C@H]2C=C(CCCCC(=O)O)C[C@H]2C[C@H]1O [9-(O)-methano-Δ^6 -PGI1]
- Chemical stability (in words) [3]: chemically stable

SMILES: CCCCC[C@H](O)/C=C/[C@@H]1[C@H]2CC(CCCCC(=O)O)=C[C@H]2C[C@H]1O [isocarbacyclin, 9(O)-methano-Δ^6(9α) -PGI1]
- Chemical stability (in words) [3]: adequately chemically stable

SMILES: O=C(O)CCC/C=C1\C[C@H]2C[C@@H](O)[C@H](/C=C/[C@@H](O)C3CCCC3)[C@H]2C1 [OP-41483]
- Chemical stability (in words) [3]: chemically stable

SMILES: CCC#CCC(C)[C@H](O)/C=C/[C@@H]1[C@H]2CCC(CCCCC(=O)O)=C[C@H]2C[C@H]1O (stereo partly drawn) [(f), 3-(4-carboxybutyl)-7-exo-(3α-hydroxy-4,8-dimethyl-trans-1-octen-6-ynyl)-8-endo-hydroxy-cis-bicyclo[4,3,0]nona-2-ene]
- IC50 [1]: 23 nM
- Activity ratio, platelet agglutination inhibiting activity, ADP agglutination [1]: 1/8
- Activity ratio, platelet agglutination inhibiting activity, Collagen agglutination [2]: 1/8
- Anti-ulcer activity (in words) (ulcer): comparable or superior to typical PG having anti-ulcer activities, such as PGE2
- ED50 (femoral artery): 0.56 µg/kg
- Activity ratio, blood flow-increasing activity in femoral artery (femoral artery): 1/23
- Hypotensive activity, blood pressure decrease (diastolic blood pressure; dog): 33 mmHg
- Activity ratio, hypotensive activity (diastolic blood pressure): 1/77
- Indomethacine ulcer inhibiting activity, Inhibiting rate (Indomethacine ulcer): 38.8%
- ED50 (coronary artery): 1.75 µg/kg
- Activity ratio, blood flow-increasing activity in coronary artery (coronary artery): 1/269
- ED50 (Ethanol ulcer): 2.92 µg/kg
- ED50 (vertebral artery): 0.57 µg/kg
- Activity ratio, blood flow-increasing activity in vertebral artery (vertebral artery): 1/13
- inhibition in vivo at 0.03 mg/kg (Hydrochloric acid ulcer): 20.5%

— US4837342A, “Prostacyclin analogue, and blood circulation improving agent and anti-ulcer composition containing it as active ingredient” (Sagami Chemical Research Center, priority 1986, dated 1989)
